Patent US6440984B1, “Use of aryl-substituted pyrimidines as insecticidal and acaricidal agents” (BASF Aktiengesellschaft, priority 1998, dated 2002)

Tests used:
Type in all cases: in vivo
[1] = system: Aphis Fabae, Mixed Instar, Bean Aphid (BA); test: Bean aphid (BA) foliar spray test, mortality after 2 days; conditions: rating scale; for pest or weed control at 300 ppm: Aphis fabae, 48 h, read-out: BA AD-FOLIAR 300 (ppm)
Experimental: (§1) Test solutions are prepared by dissolving the test compound in a 35% acetone in water mixture to give a concentration of 10,000 ppm. Subsequent dilutions are made with water as needed.
Aphis Fabae, Mixed Instar, Bean Aphid (BA)
Pots containing single nasturtium plants (Tropaeolum sp.) about 5 cm tall are infested with about 100-200 aphids one day before the test. Each pot is sprayed with the test solution for 2 revolutions of a 4 rpm turntable in a hood. The spray is directed to give complete coverage of the plants and aphids. The sprayed pots are set on their sides on white trays and held for 2 days, following which mortality estimates are made. Essentially the same method is used with respect to cotton aphid (CA).

[2] = system: Spodoptera Eridania, 3rd Instar Larvae, Southern Armyworm (SAW); test: Southern armyworm (SAW) leaf-dip test, observations at 5 days; conditions: Southern Army Worm, rating scale; for pest or weed control at 1000 ppm: Spodoptera eridania, foliar, 120 h, read-out: SAW 2^ND-FOLIAR 1000 (ppm)
Experimental: as §1
Spodoptera Eridania, 3rd Instar Larvae, Southern Armyworm (SAW)
A Sieva lima bean leaf expanded to 7-8 cm in length is dipped in the test solution with agitation for 3 seconds and allowed to dry in a hood. The leaf is then placed in a 100×10 mm petri dish containing a damp filter paper on the bottom and ten 3rd instar caterpillars. At 5 days, observations are made of mortality, reduced feeding, or any interference with normal molting.

[3] = system: Diabrotica Virgifera Virgifera Leconte, 3rd Instar Western Corn Rootworm (WCR); test: Western corn rootworm (WCR) soil test, mortality at 5 days; conditions: rating scale; for pest or weed control at 50 ppm: Diabrotica virgifera, 120 h, read-out: WCR 2^ND-SOIL 50 (ppm)
Experimental: Diabrotica Virgifera Virgifera Leconte, 3rd Instar Western Corn Rootworm (WCR) One cc of fine talc is placed in a 30 mL wide-mouth screw-top glass jar. One mL of the appropriate acetone test solution is pipetted onto the talc so as to provide 1.25 mg of active ingredient per jar. The jars are set under a gentle air flow until the acetone is evaporated. The dried talc is loosened, 1 cc of millet seed is added to serve as food for the insects and 25 mL of moist soil is added to each jar. The jar is capped and the contents thoroughly mixed mechanically. Following this, ten 3rd instar rootworms are added to each jar and the jars are loosely capped to allow air exchange for the larvae. The treatments are held for 5 days when mortality counts are made. Missing larvae are presumed dead, since they decompose rapidly and can not be found. The concentrations of active ingredient used in this test correspond approximately to 50 kg/ha.

[4] = system: Tetranychus Urticae (OP-resistant strain), 2-spotted Spider Mite (TSM); test: Two-spotted spider mite (TSM) plant-dip test, mortality after 2 days; conditions: rating scale; for pest or weed control at 300 ppm: Tetranychus urticae, 48 h, read-out: TSM AD-FOLIAR 300 (ppm)
Experimental: as §1
Tetranychus Urticae (OP-resistant strain), 2-spotted Spider Mite (TSM)
Sieva lima bean plants with primary leaves expanded to 7-8 cm are selected and cut back to one plant per pot. A small piece is cut from an infested leaf taken from the main colony and placed on each leaf of the test plants. This is done about 2 hours before treatment to allow the mites to move over to the test plant to lay eggs. The size of the cut, infested leaf is varied to obtain about 100 mites per leaf. At the time of test treatment, the piece of leaf used to transfer the mites is removed and discarded. The newly-infested plants are dipped in the test solution for 3 seconds with agitation and set in the hood to dry. After 2 days, one leaf is removed and mortality counts are made.

| Structure (SMILES) | BA AD-FOLIAR 300 (ppm) [1] | WCR 2^ND-SOIL 50 (ppm) [3] | TSM AD-FOLIAR 300 (ppm) [4] | pest or weed control at 50 ppm [3] [%] | other results |
| --- | --- | --- | --- | --- | --- |
| FC(F)(F)Oc1ccc(-c2ccnc(Oc3ccc(Cl)c(Cl)c3)n2)cc1 [Compound 50] | B (B 45-75% kill) | C (C 76-100% kill) | – | – | SAW 2^ND-FOLIAR 1000 (ppm) [2]: A (A 0-45% kill) |
| FC(F)(F)Oc1cccc(-c2ccnc(Oc3ccc(Cl)c(Cl)c3)n2)c1 [Compound 43] | C (C 76-100% kill) | C (C 76-100% kill) | C (C 76-100% kill) | – | – |
| CSc1cc(-c2ccc(Cl)cc2)nc(Oc2ccc(F)c(C(F)(F)F)c2)n1 [Compound 114] | – | – | – | 76 to 100 | – |
| FC(F)(F)c1ccc(-c2ccnc(Oc3ccc(Cl)c(C(F)(F)F)c3)n2)cc1 [Compound 145] | – | – | – | 76 to 100 | pest or weed control at 300 ppm [1]: 45 to 75%; pest or weed control at 1000 ppm [2]: 0 to 45% |
| FC(F)(F)c1ccc(-c2ccnc(Oc3cccc(C(F)(F)F)c3)n2)cc1 [Compound 144] | – | – | – | 76 to 100 | pest or weed control at 300 ppm [1]: 45 to 75%; pest or weed control at 1000 ppm [2]: 0 to 45% |
| CC(C)(C)c1ccc(-c2ccnc(Oc3ccc(F)c(C(F)(F)F)c3)n2)cc1 [Compound 24] | A (A 0-45% kill) | C (C 76-100% kill) | – | – | – |
| COc1ccc(-c2ccnc(Oc3ccc(Cl)c(C(F)(F)F)c3)n2)cc1 [Compound 35] | – | C (C 76-100% kill) | – | – | – |
| O=[N+]([O-])c1ccc(Oc2nccc(-c3cccc(C(F)(F)F)c3)n2)cc1C(F)(F)F [Compound 19] | A (A 0-45% kill) | C (C 76-100% kill) | – | – | – |
| CS(=O)(=O)c1cc(-c2ccc(Cl)c(Cl)c2)nc(Oc2ccc(F)c(C(F)(F)F)c2)n1 [Compound 92, 2-(3-trifluoromethyl-4-fluorophenoxy)-4-(3,4-dichlorophenyl)-6-methylsulfonylpyrimidine] | – | – | – | 76 to 100 | – |
| Fc1cc(-c2ccnc(Oc3ccc(F)c(Cl)c3)n2)cc(C(F)(F)F)c1 [Compound 56] | – | B (B 45-75% kill) | – | – | – |
| CSc1cc(-c2ccc(Cl)c(Cl)c2)nc(Oc2ccc(F)c(C(F)(F)F)c2)n1 [Compound 85, 2-(3-Trifluoromethyl-4-fluorophenoxy)-4-(3,4-dichlorophenyl)-6-thiomethylpyrimidine] | – | – | – | 76 to 100 | – |
| FC(F)(F)c1ccc(Oc2nccc(-c3ccccc3)n2)cc1Cl [Compound 7] | – | C (C 76-100% kill) | – | – | – |
| FC(F)(F)Oc1cccc(-c2ccnc(Oc3cccc(C(F)(F)F)c3)n2)c1 [Compound 38] | A (A 0-45% kill) | C (C 76-100% kill) | A (A 0-45% kill) | – | – |
| Fc1cc(-c2ccnc(Oc3cc(Cl)cc(Cl)c3)n2)cc(C(F)(F)F)c1 [Compound 59] | B (B 45-75% kill) | C (C 76-100% kill) | – | – | – |
| CCCc1cnc(Oc2ccc(F)c(C(F)(F)F)c2)nc1-c1cccc(C(F)(F)F)c1 [Compound 160] | – | – | – | 76 to 100 | pest or weed control at 1000 ppm [2]: 0 to 45%; pest or weed control at 300 ppm [4]: 0 to 45% |
| Fc1ccc(Oc2nccc(-c3ccc(C(F)(F)F)cc3)n2)cc1C(F)(F)F [Compound 129] | – | – | – | 45 to 75 | pest or weed control at 300 ppm [1]: 45 to 75%; pest or weed control at 1000 ppm [2]: 0 to 45% |
| FC(F)(F)c1cccc(Oc2nccc(-c3ccccc3)n2)c1 [Compound 5] | A (A 0-45% kill) | C (C 76-100% kill) | B (B 45-75% kill) | – | SAW 2^ND-FOLIAR 1000 (ppm) [2]: A (A 0-45% kill) |
| Cc1cnc(Oc2cccc(C(F)(F)F)c2)nc1-c1ccccc1 [Compound 163] | – | – | – | 76 to 100 | pest or weed control at 300 ppm [1]: 0 to 45%; pest or weed control at 300 ppm [4]: 45 to 75% |
| FC(F)(F)Oc1cccc(-c2ccnc(Oc3ccc(Cl)c(C(F)(F)F)c3)n2)c1 [Compound 39] | – | B (B 45-75% kill) | A (A 0-45% kill) | – | – |
| Fc1cc(-c2ccnc(Oc3cc(C(F)(F)F)cc(C(F)(F)F)c3)n2)cc(C(F)(F)F)c1 [Compound 60] | – | C (C 76-100% kill) | – | – | SAW 2^ND-FOLIAR 1000 (ppm) [2]: C (C 76-100% kill) |

| Structure (SMILES) | BA AD-FOLIAR 300 (ppm) [1] | WCR 2^ND-SOIL 50 (ppm) [3] | TSM AD-FOLIAR 300 (ppm) [4] | pest or weed control at 50 ppm [3] [%] | other results |
| --- | --- | --- | --- | --- | --- |
| Fc1ccc(Oc2nccc(-c3cccc(C(F)(F)F)c3)n2)cc1C(F)(F)F [Compound 21] | A (A 0-45% kill) | C (C 76-100% kill) | A (A 0-45% kill) | – | – |
| FC(F)(F)c1ccc(-c2ccnc(Oc3cccc(C(F)(F)F)c3)n2)cc1 [Compound 30] | A (A 0-45% kill) | – | B (B 45-75% kill) | – | SAW 2^ND-FOLIAR 1000 (ppm) [2]: A (A 0-45% kill) |
| FC(F)(F)Oc1cccc(-c2ccnc(Oc3cc(C(F)(F)F)cc(C(F)(F)F)c3)n2)c1 [Compound 42] | B (B 45-75% kill) | B (B 45-75% kill) | C (C 76-100% kill) | – | – |
| Fc1ccc(Oc2nccc(-c3ccc(Cl)cc3)n2)cc1F [Compound 139] | – | – | – | 76 to 100 | pest or weed control at 300 ppm [1]: 76 to 100% |
| CC(C)(C)c1ccc(-c2ccnc(Oc3ccc(Cl)c(Cl)c3)n2)cc1 [Compound 27] | B (B 45-75% kill) | C (C 76-100% kill) | – | – | – |
| CSc1cc(-c2cccc(Cl)c2)nc(Oc2ccc(Cl)c(C(F)(F)F)c2)n1 [Compound 125] | – | B (B 45-75% kill) | – | – | – |
| CCc1cnc(Oc2ccc(F)c(C(F)(F)F)c2)nc1-c1ccc(Cl)cc1 [Compound 132] | – | – | – | – | pest or weed control at 300 ppm [1]: 76 to 100%; pest or weed control at 1000 ppm [2]: 0 to 45%; pest or weed control at 300 ppm [4]: 45 to 75% |
| Fc1ccc(-c2ccnc(Oc3ccc(C(F)(F)F)c(F)c3)n2)cc1 [Compound 135] | – | – | – | – | pest or weed control at 300 ppm [1]: 0 to 45%; pest or weed control at 1000 ppm [2]: 0 to 45%; pest or weed control at 300 ppm [4]: 0 to 45% |
| Fc1ccc(Oc2nccc(-c3ccc(OC(F)(F)F)cc3)n2)cc1Cl [Compound 55] | A (A 0-45% kill) | C (C 76-100% kill) | A (A 0-45% kill) | – | SAW 2^ND-FOLIAR 1000 (ppm) [2]: A (A 0-45% kill) |
| O=[N+]([O-])c1ccc(Oc2nccc(-c3cc(F)cc(C(F)(F)F)c3)n2)cc1C(F)(F)F [Compound 57] | – | C (C 76-100% kill) | – | – | – |
| CCc1cnc(Oc2cccc(C(F)(F)F)c2)nc1-c1ccc(Cl)cc1 [Compound 131] | – | – | – | 76 to 100 | pest or weed control at 1000 ppm [2]: 0 to 45% |
| CCc1cnc(Oc2ccc(Cl)c(C(F)(F)F)c2)nc1-c1cccc(C(F)(F)F)c1 [Compound 158] | – | – | – | 76 to 100 | pest or weed control at 1000 ppm [2]: 0 to 45% |
| Fc1cc(-c2ccnc(Oc3ccc(Cl)c(C(F)(F)F)c3)n2)cc(C(F)(F)F)c1 [Compound 51] | – | C (C 76-100% kill) | – | – | SAW 2^ND-FOLIAR 1000 (ppm) [2]: B (B 45-75% kill) |
| Fc1ccc(-c2ccnc(Oc3ccc(F)c(C(F)(F)F)c3)n2)cc1 [Compound 22, 2-(3-Trifluoromethyl-4-fluorophenoxy)-4-(4-fluorophenyl)pyrimidine] | – | – | – | 76 to 100 | pest or weed control at 300 ppm [1]: 45 to 75%; pest or weed control at 1000 ppm [2]: 0 to 45%; pest or weed control at 300 ppm [4]: 0 to 45% |
| Fc1ccc(-c2ccnc(Oc3cccc(C(F)(F)F)c3)n2)cc1 [Compound 23] | – | B (B 45-75% kill) | A (A 0-45% kill) | – | – |
| FC(F)(F)c1cccc(-c2ccnc(Oc3ccc(Cl)c(Cl)c3)n2)c1 [Compound 18] | A (A 0-45% kill) | – | A (A 0-45% kill) | – | SAW 2^ND-FOLIAR 1000 (ppm) [2]: A (A 0-45% kill) |
| Fc1ccc(Oc2nccc(-c3ccc(OC(F)(F)F)cc3)n2)cc1C(F)(F)F [Compound 47] | A (A 0-45% kill) | – | B (B 45-75% kill) | – | SAW 2^ND-FOLIAR 1000 (ppm) [2]: A (A 0-45% kill) |
| Fc1cc(-c2ccnc(Oc3ccccc3)n2)cc(C(F)(F)F)c1 [Compound 54] | C (C 76-100% kill) | – | C (C 76-100% kill) | – | SAW 2^ND-FOLIAR 1000 (ppm) [2]: C (C 76-100% kill) |
| CCc1ccc(-c2ccnc(Oc3ccc(Cl)c(Cl)c3)n2)cc1 [Compound 12] | – | C (C 76-100% kill) | C (C 76-100% kill) | – | SAW 2^ND-FOLIAR 1000 (ppm) [2]: C (C 76-100% kill) |
